The text below walks through data of US6649144B1, “Method for detecting and killing epithelial cancer cells” (Zila, Inc., priority 2001, dated 2003).

Molecules are shown by their SMILES.

In this assay the test system is carcinoma cells. Nature of the assay: Uptake and retention of mitochondrial marking agents in living carcinoma cells. The note with it: 5 minutes incubation at 37° C., rinsed twice with 1% acetic acid, 2-butanol extraction, spectrophotometry. Type of assay: cell-based. The procedure: Different concentrations of the various cationic marking agents, at 100, 50, 10 and 1 μg/ml are prepared in RPMI medium complete with 20% fetal calf serum, 1 mM glutamine, hydrocortisone, insulin, transferrin, estradiol, selenium and growth hormone.
The carcinoma cells are incubated at 37° C. in tissue culture incubators with 5% CO2 and 95% relative humidity, for 5 minutes with each agent and concentration there and then rinsed twice using 2 minute incubations with 1% acetic acid. After incubation and rinsing, the cells are harvested, at 30 min., 1 hour, 2 hours, 4 hours and 8 hours. The cells are then extracted with 2-butanol and analyzed by spectrophotometry for quantitation of the marking agent.
The saturation concentration for toluidine blue O occurs at concentrations of 10 μg/ml and above. The saturation concentrations for the other marking agents are similarly determined. The remaining experiments are conducted with a concentration of 10 μg/ml for toluidine blue O and at the saturation concentrations for the other marking agents so-determined, unless stated otherwise.

On to `Cc1cc2nc3ccc(N(C)C)cc3[s+]c2cc1N.[Cl-]` [toluidine blue O], for which the saturation concentration is no less than 10 µg/mL.
